Laboratory results as given in the kinase profiling compilation of Christmann-Franck et al. (2016).

How the values were obtained:
Assay in all cases: radiometric filter-binding kinase assay, Kinase HotSpot
Settings in all cases: compound 0.5 µM; ATP 10 µM
[1] = biological target: ACVR1 (human) (UniProt Q04771)
[2] = biological target: AURKB (human) (UniProt Q96GD4)
[3] = biological target: BTK (human) (UniProt Q06187)
[4] = biological target: CDK2 CCNE1 (human) (UniProt P24941+P24864)
[5] = biological target: CDK7 CCNH MNAT1 (human) (UniProt P50613+P51948+P51946)
[6] = biological target: CHEK1 (human) (UniProt O14757)
[7] = biological target: CLK2 (human) (UniProt P49760)
[8] = biological target: CSNK1D (human) (UniProt P48730)
[9] = biological target: DAPK2 (human) (UniProt Q9UIK4)
[10] = biological target: EPHA3 (human) (UniProt P29320)
[11] = biological target: EPHB4 (human) (UniProt P54760)
[12] = biological target: ERBB4 (human) (UniProt Q15303)
[13] = biological target: FGFR2 (human) (UniProt P21802)
[14] = biological target: FRK (human) (UniProt P42685)
Sequence of FRK (human) (P42685 whole entry, looked up): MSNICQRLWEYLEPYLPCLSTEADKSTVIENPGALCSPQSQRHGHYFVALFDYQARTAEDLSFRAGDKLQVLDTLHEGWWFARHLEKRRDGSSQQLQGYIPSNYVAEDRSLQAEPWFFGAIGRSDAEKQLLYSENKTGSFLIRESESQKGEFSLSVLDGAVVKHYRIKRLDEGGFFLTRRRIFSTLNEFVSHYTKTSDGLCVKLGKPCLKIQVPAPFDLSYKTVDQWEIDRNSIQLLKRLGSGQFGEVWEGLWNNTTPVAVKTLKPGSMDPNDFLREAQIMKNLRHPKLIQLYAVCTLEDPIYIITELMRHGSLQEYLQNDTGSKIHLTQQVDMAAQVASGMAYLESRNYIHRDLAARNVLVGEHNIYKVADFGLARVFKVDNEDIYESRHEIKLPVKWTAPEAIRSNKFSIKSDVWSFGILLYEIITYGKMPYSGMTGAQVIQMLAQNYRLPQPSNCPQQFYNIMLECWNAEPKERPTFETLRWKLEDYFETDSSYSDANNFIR

[15] = biological target: HIPK2 (human) (UniProt Q9H2X6)
[16] = biological target: IRAK1 (human) (UniProt P51617)
[17] = biological target: JAK1 JH1 catalytic (human) (UniProt P23458)
[18] = biological target: MAPK3 (human) (UniProt P27361)
Sequence of MAPK3 (human) (P27361 whole entry, looked up): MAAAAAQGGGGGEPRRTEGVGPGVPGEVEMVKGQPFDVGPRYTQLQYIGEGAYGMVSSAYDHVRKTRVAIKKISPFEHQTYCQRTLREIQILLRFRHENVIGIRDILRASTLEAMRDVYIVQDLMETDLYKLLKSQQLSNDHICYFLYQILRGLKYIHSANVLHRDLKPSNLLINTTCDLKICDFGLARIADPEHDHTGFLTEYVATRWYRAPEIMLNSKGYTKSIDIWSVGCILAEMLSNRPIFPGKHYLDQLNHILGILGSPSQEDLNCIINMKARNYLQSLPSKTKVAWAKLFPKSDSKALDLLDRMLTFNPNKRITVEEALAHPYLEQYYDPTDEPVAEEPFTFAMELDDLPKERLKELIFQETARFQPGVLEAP

[19] = biological target: MATK (human) (UniProt P42679)
[20] = biological target: MUSK (human) (UniProt O15146)
[21] = biological target: MYLK (human) (UniProt Q15746)
[22] = biological target: MYLK2 (human) (UniProt Q9H1R3)
[23] = biological target: NEK1 (human) (UniProt Q96PY6)
[24] = biological target: NEK2 (human) (UniProt P51955)
[25] = biological target: NEK4 (human) (UniProt P51957)
Sequence of NEK4 (human) (P51957 whole entry, looked up): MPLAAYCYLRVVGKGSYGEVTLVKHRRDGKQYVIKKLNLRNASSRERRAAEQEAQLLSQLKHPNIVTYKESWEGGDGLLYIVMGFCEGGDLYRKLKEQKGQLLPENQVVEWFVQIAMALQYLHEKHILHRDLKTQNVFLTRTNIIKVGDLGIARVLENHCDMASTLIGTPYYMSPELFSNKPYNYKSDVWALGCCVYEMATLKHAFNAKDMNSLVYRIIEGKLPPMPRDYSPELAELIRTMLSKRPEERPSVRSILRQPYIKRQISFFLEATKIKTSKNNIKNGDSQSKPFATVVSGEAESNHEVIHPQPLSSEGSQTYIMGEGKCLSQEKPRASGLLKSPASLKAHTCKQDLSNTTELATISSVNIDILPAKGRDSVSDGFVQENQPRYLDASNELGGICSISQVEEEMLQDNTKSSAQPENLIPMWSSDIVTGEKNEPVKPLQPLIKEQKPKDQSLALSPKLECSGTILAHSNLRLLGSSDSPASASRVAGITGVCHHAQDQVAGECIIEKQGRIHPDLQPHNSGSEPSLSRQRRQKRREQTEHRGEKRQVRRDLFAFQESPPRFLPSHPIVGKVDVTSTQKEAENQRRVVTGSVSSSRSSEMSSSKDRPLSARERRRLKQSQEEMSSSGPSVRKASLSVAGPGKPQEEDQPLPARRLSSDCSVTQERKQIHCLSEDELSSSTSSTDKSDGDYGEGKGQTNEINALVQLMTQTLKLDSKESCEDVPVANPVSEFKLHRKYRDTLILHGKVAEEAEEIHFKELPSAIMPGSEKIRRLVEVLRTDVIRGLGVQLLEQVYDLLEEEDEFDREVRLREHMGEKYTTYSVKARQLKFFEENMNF

[26] = biological target: NEK6 (human) (UniProt Q9HC98)
[27] = biological target: NEK9 (human) (UniProt Q8TD19)
[28] = biological target: NUAK2 (human) (UniProt Q9H093)
Sequence of NUAK2 (human) (Q9H093 whole entry, looked up): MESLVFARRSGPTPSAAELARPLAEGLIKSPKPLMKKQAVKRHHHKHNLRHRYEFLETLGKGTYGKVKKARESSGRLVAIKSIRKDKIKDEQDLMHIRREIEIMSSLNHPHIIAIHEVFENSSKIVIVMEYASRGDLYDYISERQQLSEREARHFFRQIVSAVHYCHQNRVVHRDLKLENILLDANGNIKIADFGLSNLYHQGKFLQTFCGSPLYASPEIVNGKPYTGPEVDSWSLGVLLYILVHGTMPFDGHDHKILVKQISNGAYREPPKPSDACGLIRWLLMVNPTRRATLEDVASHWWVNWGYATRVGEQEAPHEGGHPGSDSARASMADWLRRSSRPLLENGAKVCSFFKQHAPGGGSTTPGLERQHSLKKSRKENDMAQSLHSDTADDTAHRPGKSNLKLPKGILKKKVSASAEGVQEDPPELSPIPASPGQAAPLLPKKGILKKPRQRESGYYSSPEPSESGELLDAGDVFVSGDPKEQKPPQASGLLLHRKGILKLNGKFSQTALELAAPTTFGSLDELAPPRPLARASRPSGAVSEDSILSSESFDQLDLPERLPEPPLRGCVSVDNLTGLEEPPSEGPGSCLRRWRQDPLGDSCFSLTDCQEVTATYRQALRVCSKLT

[29] = biological target: PDPK1 (human) (UniProt O15530)
[30] = biological target: PLK3 (human) (UniProt Q9H4B4)
[31] = biological target: PRKCD (human) (UniProt Q05655)
[32] = biological target: PRKCH (human) (UniProt P24723)
Sequence of PRKCH (human) (P24723 whole entry, looked up): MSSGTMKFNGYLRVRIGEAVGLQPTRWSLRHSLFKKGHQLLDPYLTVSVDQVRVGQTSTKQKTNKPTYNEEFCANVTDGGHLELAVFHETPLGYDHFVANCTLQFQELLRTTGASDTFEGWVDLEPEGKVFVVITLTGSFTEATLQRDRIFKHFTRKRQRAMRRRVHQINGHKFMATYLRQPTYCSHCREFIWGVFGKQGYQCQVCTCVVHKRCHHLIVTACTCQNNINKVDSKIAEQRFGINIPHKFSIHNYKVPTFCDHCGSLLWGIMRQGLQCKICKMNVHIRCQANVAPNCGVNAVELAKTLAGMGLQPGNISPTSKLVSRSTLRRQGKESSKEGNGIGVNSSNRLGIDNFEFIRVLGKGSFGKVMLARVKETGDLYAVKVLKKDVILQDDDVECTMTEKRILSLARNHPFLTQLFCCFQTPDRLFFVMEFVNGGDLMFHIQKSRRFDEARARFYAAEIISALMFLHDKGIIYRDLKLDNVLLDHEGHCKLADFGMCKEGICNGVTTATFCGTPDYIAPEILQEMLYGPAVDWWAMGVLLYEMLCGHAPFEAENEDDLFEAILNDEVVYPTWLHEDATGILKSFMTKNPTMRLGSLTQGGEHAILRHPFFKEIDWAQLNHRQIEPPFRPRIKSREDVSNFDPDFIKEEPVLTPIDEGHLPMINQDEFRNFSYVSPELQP

[33] = biological target: PRKD2 (human) (UniProt Q9BZL6)
[34] = biological target: PTK2B (human) (UniProt Q14289)
[35] = biological target: RET (human) (UniProt P07949)
[36] = biological target: RPS6KA5 KD2 (human) (UniProt O75582)
[37] = biological target: SIK2 (human) (UniProt Q9H0K1)
[38] = biological target: SRMS (human) (UniProt Q9H3Y6)
Sequence of SRMS (human) (Q9H3Y6 whole entry, looked up): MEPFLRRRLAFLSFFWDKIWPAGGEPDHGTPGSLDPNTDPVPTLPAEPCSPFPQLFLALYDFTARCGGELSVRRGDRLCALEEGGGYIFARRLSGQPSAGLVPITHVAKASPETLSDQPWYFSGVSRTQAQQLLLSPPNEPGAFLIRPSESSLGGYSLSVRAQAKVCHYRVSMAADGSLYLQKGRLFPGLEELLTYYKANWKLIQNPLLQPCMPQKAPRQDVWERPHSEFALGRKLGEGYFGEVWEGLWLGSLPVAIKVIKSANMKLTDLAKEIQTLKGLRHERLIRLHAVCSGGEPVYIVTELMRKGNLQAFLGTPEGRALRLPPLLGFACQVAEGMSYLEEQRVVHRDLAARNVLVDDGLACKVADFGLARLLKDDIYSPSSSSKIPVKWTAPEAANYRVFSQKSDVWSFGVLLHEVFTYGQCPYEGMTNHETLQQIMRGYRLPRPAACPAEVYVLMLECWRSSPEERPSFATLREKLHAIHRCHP

[39] = biological target: SRPK2 (human) (UniProt P78362)
Sequence of SRPK2 (human) (P78362 whole entry, looked up): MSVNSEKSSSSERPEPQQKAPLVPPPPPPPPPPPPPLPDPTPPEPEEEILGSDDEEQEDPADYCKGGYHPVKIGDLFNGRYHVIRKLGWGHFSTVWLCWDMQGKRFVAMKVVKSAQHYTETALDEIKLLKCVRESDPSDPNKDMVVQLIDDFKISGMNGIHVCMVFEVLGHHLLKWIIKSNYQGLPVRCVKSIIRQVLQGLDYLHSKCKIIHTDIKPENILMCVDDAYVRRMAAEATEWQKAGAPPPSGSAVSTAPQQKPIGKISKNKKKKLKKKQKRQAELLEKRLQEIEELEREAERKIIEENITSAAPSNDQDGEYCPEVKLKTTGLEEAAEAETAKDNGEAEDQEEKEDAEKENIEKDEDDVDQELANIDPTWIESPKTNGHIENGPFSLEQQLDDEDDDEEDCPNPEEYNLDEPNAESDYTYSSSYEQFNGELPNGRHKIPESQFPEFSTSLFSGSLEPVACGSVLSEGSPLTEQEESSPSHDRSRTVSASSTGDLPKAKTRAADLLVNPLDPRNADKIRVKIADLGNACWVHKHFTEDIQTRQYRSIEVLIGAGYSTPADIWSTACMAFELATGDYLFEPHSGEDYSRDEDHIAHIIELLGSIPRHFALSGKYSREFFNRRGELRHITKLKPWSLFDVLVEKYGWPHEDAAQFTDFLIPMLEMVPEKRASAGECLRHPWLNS

[40] = biological target: TBK1 (human) (UniProt Q9UHD2)
Sequence of TBK1 (human) (Q9UHD2 whole entry, looked up): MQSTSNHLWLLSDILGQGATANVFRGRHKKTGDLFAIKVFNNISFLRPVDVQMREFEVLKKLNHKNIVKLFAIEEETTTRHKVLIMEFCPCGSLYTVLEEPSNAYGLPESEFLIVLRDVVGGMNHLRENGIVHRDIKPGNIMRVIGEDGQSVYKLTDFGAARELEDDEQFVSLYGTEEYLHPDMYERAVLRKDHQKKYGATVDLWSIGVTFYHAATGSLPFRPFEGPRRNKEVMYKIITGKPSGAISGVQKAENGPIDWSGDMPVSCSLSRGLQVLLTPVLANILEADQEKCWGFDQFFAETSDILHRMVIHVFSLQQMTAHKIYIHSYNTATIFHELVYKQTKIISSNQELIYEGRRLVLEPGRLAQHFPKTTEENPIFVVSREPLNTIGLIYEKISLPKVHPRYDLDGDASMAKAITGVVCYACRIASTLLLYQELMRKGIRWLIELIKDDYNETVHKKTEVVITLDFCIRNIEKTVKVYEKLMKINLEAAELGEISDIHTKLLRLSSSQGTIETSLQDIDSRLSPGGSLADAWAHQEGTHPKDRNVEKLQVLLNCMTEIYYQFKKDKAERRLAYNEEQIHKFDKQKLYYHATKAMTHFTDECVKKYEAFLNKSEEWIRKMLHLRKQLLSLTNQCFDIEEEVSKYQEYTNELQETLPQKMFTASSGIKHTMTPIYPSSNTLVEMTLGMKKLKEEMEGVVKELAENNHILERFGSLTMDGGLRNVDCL

[41] = biological target: TEC (human) (UniProt P42680)
[42] = biological target: TGFBR1 (human) (UniProt P36897)

CCc1nc(-c2ccc(OC)cc2)[nH]c1-c1ccncc1
residual activity [1]: 95.8% | residual activity [2]: 101% | residual activity [3]: 106% | residual activity [4]: 93.7% | residual activity [5]: 97.3% | residual activity [6]: 98.6% | residual activity [7]: 106% | residual activity [8]: 95.1% | residual activity [9]: 104% | residual activity [10]: 100% | residual activity [11]: 90.3% | residual activity [12]: 86.8% | residual activity [13]: 104% | residual activity [14]: 101% | residual activity [15]: 93.6% | residual activity [16]: 128% | residual activity [17]: 110% | residual activity [18]: 99.9% | residual activity [19]: 94.1% | residual activity [20]: 85.9% | residual activity [21]: 104% | residual activity [22]: 101% | residual activity [23]: 98.9% | residual activity [24]: 100% | residual activity [25]: 95.2% | residual activity [26]: 95.3% | residual activity [27]: 101% | residual activity [28]: 129% | residual activity [29]: 96% | residual activity [30]: 96.9% | residual activity [31]: 98.5% | residual activity [32]: 93% | residual activity [33]: 102% | residual activity [34]: 94.6% | residual activity [35]: 99.2% | residual activity [36]: 107% | residual activity [37]: 88.3% | residual activity [38]: 106% | residual activity [39]: 101% | residual activity [40]: 99.7% | residual activity [41]: 109% | residual activity [42]: 98.2%

Nc1ncnc2c1cnn2-c1ccccc1
residual activity [1]: 101% | residual activity [2]: 99.2% | residual activity [3]: 98.7% | residual activity [4]: 93.9% | residual activity [5]: 102% | residual activity [6]: 92.5% | residual activity [7]: 91.4% | residual activity [8]: 79.5% | residual activity [9]: 96.7% | residual activity [10]: 95% | residual activity [11]: 103% | residual activity [12]: 101% | residual activity [13]: 100% | residual activity [14]: 101% | residual activity [15]: 103% | residual activity [16]: 85.8% | residual activity [17]: 98.1% | residual activity [18]: 90.1% | residual activity [19]: 89.9% | residual activity [20]: 88% | residual activity [21]: 99.7% | residual activity [22]: 99.9% | residual activity [23]: 62.4% | residual activity [24]: 98.8% | residual activity [25]: 98.7% | residual activity [26]: 114% | residual activity [27]: 110% | residual activity [28]: 75.2% | residual activity [29]: 104% | residual activity [30]: 94.6% | residual activity [31]: 93% | residual activity [32]: 94.8% | residual activity [33]: 126% | residual activity [34]: 108% | residual activity [35]: 98.2% | residual activity [36]: 89% | residual activity [37]: 99.8% | residual activity [38]: 104% | residual activity [39]: 104% | residual activity [41]: 103% | residual activity [42]: 99.6%

O=S(=O)(NCCNC/C=C/c1ccc(Br)cc1)c1cccc2cnccc12
residual activity [1]: 96.4% | residual activity [2]: 97.8% | residual activity [3]: 97.4% | residual activity [4]: 99.3% | residual activity [5]: 82.8% | residual activity [6]: 90.8% | residual activity [7]: 106% | residual activity [9]: 72.1% | residual activity [10]: 109% | residual activity [11]: 108% | residual activity [12]: 94.2% | residual activity [13]: 95.1% | residual activity [15]: 99.2% | residual activity [16]: 95.7% | residual activity [17]: 87.3% | residual activity [18]: 84.8% | residual activity [19]: 96.1% | residual activity [20]: 80.7% | residual activity [21]: 90.8% | residual activity [22]: 96.5% | residual activity [23]: 94.4% | residual activity [24]: 97.1% | residual activity [25]: 96.9% | residual activity [26]: 100% | residual activity [27]: 99.3% | residual activity [28]: 78.1% | residual activity [29]: 94.1% | residual activity [30]: 98.2% | residual activity [31]: 38.1% | residual activity [32]: 53.2% | residual activity [33]: 75.9% | residual activity [34]: 85% | residual activity [35]: 102% | residual activity [36]: 39.4% | residual activity [37]: 95% | residual activity [38]: 97.8% | residual activity [39]: 88.3% | residual activity [40]: 101% | residual activity [41]: 102% | residual activity [42]: 97%

N#CCCc1ccc2c(c1)-c1[nH]c3ccc([N+](=O)[O-])cc3c1CC(=O)N2
residual activity [1]: 58.8% | residual activity [2]: 80% | residual activity [3]: 94.6% | residual activity [4]: 13.4% | residual activity [6]: 45.1% | residual activity [7]: 104% | residual activity [8]: 97.4% | residual activity [9]: 96.5% | residual activity [10]: 93.9% | residual activity [11]: 82.2% | residual activity [12]: 91.8% | residual activity [13]: 93.2% | residual activity [14]: 92.7% | residual activity [15]: 106% | residual activity [16]: 74.9% | residual activity [17]: 91.9% | residual activity [18]: 95.1% | residual activity [19]: 101% | residual activity [20]: 63% | residual activity [21]: 95.2% | residual activity [22]: 93.9% | residual activity [23]: 132% | residual activity [24]: 92.7% | residual activity [25]: 104% | residual activity [26]: 101% | residual activity [27]: 103% | residual activity [28]: 67.6% | residual activity [29]: 79.8% | residual activity [30]: 99.7% | residual activity [31]: 74.9% | residual activity [32]: 99.4% | residual activity [33]: 94.2% | residual activity [34]: 62.9% | residual activity [35]: 80.8% | residual activity [36]: 94.2% | residual activity [37]: 44.2% | residual activity [38]: 78.6% | residual activity [39]: 109% | residual activity [40]: 83.7% | residual activity [41]: 120% | residual activity [42]: 103%

O=C(c1ccccc1)c1ccc(N2CCOCC2)cc1O
residual activity [1]: 107% | residual activity [2]: 95.5% | residual activity [3]: 103% | residual activity [4]: 99.6% | residual activity [5]: 106% | residual activity [6]: 108% | residual activity [7]: 106% | residual activity [8]: 100% | residual activity [9]: 102% | residual activity [10]: 105% | residual activity [12]: 102% | residual activity [13]: 99.1% | residual activity [14]: 102% | residual activity [15]: 105% | residual activity [16]: 103% | residual activity [17]: 108% | residual activity [18]: 102% | residual activity [19]: 92.5% | residual activity [20]: 101% | residual activity [21]: 91.8% | residual activity [22]: 99.1% | residual activity [23]: 115% | residual activity [24]: 101% | residual activity [25]: 97.7% | residual activity [26]: 95% | residual activity [27]: 103% | residual activity [28]: 111% | residual activity [29]: 101% | residual activity [30]: 99.1% | residual activity [31]: 98.8% | residual activity [32]: 70% | residual activity [33]: 99.1% | residual activity [34]: 102% | residual activity [35]: 97.8% | residual activity [36]: 102% | residual activity [37]: 100% | residual activity [38]: 93.9% | residual activity [39]: 102% | residual activity [40]: 100% | residual activity [41]: 119% | residual activity [42]: 94.3%
